Values of other authors, collected in patent publication US9481856B2, “Pharmaceutical formulations comprising stabilized polysaccharides and source of hydrogen peroxide” (Bausch & Lomb Incorporated, priority 2008, dated 2016).

Legend:
[1] = test system: goblet cell
[2] = test system: sensitive tissues of the eye

Substance	effect on goblet cell density [1]	concentration causing necrosis [2]
α-4-{tris(2hydroxyethyl)ammonium-2-butenyl} poly {1-dimethylammonium-2-butenyl}-ω-tris(2-hydroxyethyl)ammonium chloride [polyquaternium-1]	significantly to decrease goblet cell density	
benzalkonium chloride [BAK]		0.05-0.1%
